Laboratory results as given in US20070037253A1, “Methods and compositions for treatment of arthritis and cancer” (priority 2003, published 2007).
Where a SMILES comes first, the peptide text is derived from it.

What was measured:
Format in all cases: biochemical
[1] = target: T1, purified human synovial sPLA2 (human Type IIA sPLA2) (Homo sapiens, UniProt P14555); assay: sPLA2 inhibition, 3H-arachidonate-labelled E. coli membrane assay; conditions: for inhibition at 5 µM: read-out: % Inhibition (mean ± SD)
T1 construct: purchased Cayman Chemicals, USA
T1 sequence (P14555 21-144): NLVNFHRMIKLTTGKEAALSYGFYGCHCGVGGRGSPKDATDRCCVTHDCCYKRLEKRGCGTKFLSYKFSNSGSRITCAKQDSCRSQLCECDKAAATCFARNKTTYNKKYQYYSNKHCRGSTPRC
Protocol: In brief, [^3H] arachidonate-labeled E. coli membranes (0.005 mCi/mL; 5.8 μCi/μmol, NEN) were used as substrate, and 100 mM Tris-HCl—25 mM CaCl2, pH 7.5 solution as an assay buffer. The reaction mixture contained 20 μL of substrate, 0.85 pmole of purified human synovial sPLA2 (human Type IIA sPLA2, Cayman Chemicals, USA), and an increasing concentrations of the family of synthetic peptides derived from the sequence of PIP. The final volume of the reaction mixture was adjusted to 250 μL with an assay buffer. After incubation of the mixture (37° C., 1 h) and termination of the reaction with 750 μL of chilled PBS containing 1% BSA, microfuge tubes containing the samples were centrifuged (10,000 g at 4° C. for 15 min), and 500 μL aliquots of the supernatant taken to measure the amount of [^3H]-labeled arachidonate released from the E. coli membrane using liquid scintillation counting (Multipurpose Scintillation Counter LS 6500; Beckman, USA). As controls, sPLA2 was pre-incubated with the assay buffer alone. All samples, including controls, were performed in triplicate and plotted as the percentage inhibition relative to negative controls.
A sigmoid dose response curve was generated to allow calculation of the IC50 values. All samples were performed in triplicate. Results were analyzed by nonlinear regression with GraphPad Prism (version 2.01) and expressed as the percentage of inhibition relative to control values.

[2] = target: T2, human recombinant MMP-1 (Homo sapiens, UniProt P03956); assay: MMP-1 colorimetric assay (BIOMOL AK-404 QuantiZyme)
T2 construct: human recombinant MMP-1 catalytic domain in each well (15.3 U, 20 μL); purchased BIOMOL AK-404
T2 sequence (P03956 100-269 limits assumed): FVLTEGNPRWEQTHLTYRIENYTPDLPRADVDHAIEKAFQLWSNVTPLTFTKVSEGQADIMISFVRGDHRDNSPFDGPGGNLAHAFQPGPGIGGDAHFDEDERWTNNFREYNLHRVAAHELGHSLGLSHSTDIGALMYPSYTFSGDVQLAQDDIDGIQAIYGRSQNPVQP
Protocol: FIG. 3 illustrates the results of an assay on inhibition of human recombinant MMP-1 enzyme activity by various peptide mutants. (A) MMP-1 Activity Curves: The reaction velocity (V) was determined from the slope of the OD versus time (min) plot for each test inhibitor using the linear regression analysis. (∘), Human recombinant MMP-1 purified enzyme; (□), NNGH standard positive control MMP-1 selective inhibitor; (▾), P-NT.II; (▴), D60,65E dimer; (•), PIP [57-67] dimer; (▪), PIP [59-67] dimer. (B) MMP-1 Activity Inhibition Curves: Inhibition curves of various peptide mutants against the human MMP-1 activity. Results are expressed as the mean±SD (n=3).
Inhibition of MMP-1 enzymatic activity: Enzyme inhibition by peptide analogues was assessed by using MMP-1 Colorimetric assay kit for drug discovery (BIOMOL AK-404 QuantiZyme Assay system). Briefly, human recombinant MMP-1 catalytic domain in each well (15.3 U, 20 μL) was allowed to react either with the candidate peptide (test inhibitor) dissolved in DMSO (final 0.5% DMSO in assay buffer), or with the assay buffer alone (control) for 30 min at 37° C. Immediately following incubation, the reaction was initiated by adding the thiopeptide substrate solution in assay buffer (10 μL of 100 μM Ac-PLG-[2-mercapto-4-methyl-pentanoyl]-LG-OC2H5) into each well, and the absorbance at 412 nm continuously monitored for 10 min. 1 mM Ellman's reagent [5,5′-dithiobis (2-nitrobenzoic acid] in assay buffer (50 mM HEPES, 10 mM CaCl2, 0.05% Brij-35) was used as a colour developer in this assay system. The reaction velocity (V) was determined from the slope of the OD versus time (min) plot for each test inhibitor using the linear regression analysis (Graph Pad Prism, Version 2). Inhibition (%) was then calculated using the equation, [100]−[(V inhibitor/control)×100].

[3] = system: collagenase I (MMP-1); assay: Collagenase activity assay, collagen thin film (collagen type II substrate); conditions: collagen thin film, collagen type II; peptide concentration not given
Protocol: Collagenase activity was assayed by collagen thin film method using collagen type II as substrate. IC50 values were graphically determined from the inhibition curves, constructed on the basis of the in vitro results of collagenase assays. Results are the mean±SD of 3 separate experiments done in triplicates. (•), P-NT.II; (□), PIP [59-67] dimer; (Δ), PIP [59-67} monomer; (∇), LY 315920.
Collagenase activity assay: Using collagen thin film as the substrate, a quantitative method was established to measure the enzymatic activity of the MMPs (principally collagenase). Collagen type II (Sigma) solution (4 μL, 3 mg/mL in 0.012 N HCl) was added to each well of 96-well plates and precipitated by slowly increasing the pH with 4 μL of H2O and 8 μL of 0.012 N NaOH. The plate was dried at 23° C. for 24 hr, washed with H2O, and dried again at 23° C., resulting in a thin film containing 12 μg of collagen that was tightly bound to the bottom of the wells. Enzymatic reactions of the collagenase I (with and without peptide inhibitors) against the collagen films were carried out in quadruplicate at 24° C. for 16 h. The digested portion of the film was washed away, while the undigested portion was fixed for 3 h with 0.1% Coomassie brilliant blue R in 10% acetic acid and 45% methanol, and the wells washed and dried.

[4] = fixed peptide concentration (5 μM), 3H-labelled E. coli membrane assay

Molecule: CC[C@H](C)[C@H](NC(=O)[C@H](CC(=O)O)NC(=O)[C@@H](NC(=O)[C@H](CCCNC(=N)N)NC(=O)CN)C(C)C)C(=O)N[C@@H](Cc1c[nH]cn1)C(=O)N[C@H](C(=O)N[C@@H](Cc1c[nH]c2ccccc12)C(=O)N[C@@H](CC(=O)O)C(=O)NCC(=O)N[C@H](C(=O)NCC(=O)N[C@@H](CCCNC(=N)N)C(=O)N[C@H](C(=O)N[C@@H](CC(=O)O)C(=O)N[C@H](C(=O)N[C@@H](Cc1c[nH]cn1)C(=O)N[C@H](C(=O)N[C@@H](Cc1c[nH]c2ccccc12)C(=O)N[C@@H](CC(=O)O)C(=O)NCC(=O)N[C@H](C(=O)O)C(C)C)C(C)C)[C@@H](C)CC)C(C)C)C(C)C)C(C)C [PIP [57-67] dimer] (H-GRVDIHVWDGVGRVDIHVWDGV-OH; N-terminus and C-terminus assumed)
- IC50 [1]: 2430 ± 760 nM
- inhibition at 5 µM [1, 4]: 76.4 ± 3.87%
- IC50 [2]: 970 nM

Molecule: GRVDIHVWDGVYIRGR [PIP [57-72], P-NT.II analogue]
- Collagenase (% Inhibition) [3]: 39.8 ± 3.5%

Molecule: CC[C@H](C)[C@H](NC(=O)[C@H](CCC(=O)O)NC(=O)[C@@H](N)C(C)C)C(=O)N[C@@H](Cc1c[nH]cn1)C(=O)N[C@H](C(=O)N[C@@H](Cc1c[nH]c2ccccc12)C(=O)N[C@@H](CCC(=O)O)C(=O)NCC(=O)N[C@H](C(=O)O)C(C)C)C(C)C [D60,65E-PIP [59-67]] (H-VEIHVWEGV-OH; N-terminus and C-terminus assumed)
- Collagenase (% Inhibition) [3]: 5.4 ± 1.8%
- inhibition at 5 µM [1, 4]: 61.4 ± 4.32%

Molecule: CC[C@H](C)[C@H](NC(=O)[C@H](CC(=O)O)NC(=O)[C@@H](N)C(C)C)C(=O)N[C@@H](Cc1c[nH]cn1)C(=O)N[C@H](C(=O)N[C@@H](Cc1c[nH]c2ccccc12)C(=O)N[C@@H](C)C(=O)NCC(=O)N[C@H](C(=O)O)C(C)C)C(C)C [D65A-PIP [59-67], VDIHVW (A) GV] (H-VDIHVWAGV-OH; N-terminus and C-terminus assumed)
- inhibition at 5 µM [1, 4]: 48.5 ± 2.34%

Molecule: CC[C@H](C)[C@H](NC(=O)[C@H](Cc1ccc(O)cc1)NC(=O)[C@@H](NC(=O)CNC(=O)[C@H](CC(=O)O)NC(=O)[C@H](Cc1c[nH]c2ccccc12)NC(=O)[C@@H](NC(=O)[C@H](Cc1cnc[nH]1)NC(=O)[C@@H](NC(=O)[C@H](CC(=O)O)NC(=O)[C@@H](NC(=O)[C@H](CCCNC(=N)N)NC(=O)CNC(=O)[C@@H](N)CC(C)C)C(C)C)[C@@H](C)CC)C(C)C)C(C)C)C(=O)N[C@@H](CCCNC(=N)N)C(=O)NCC(=O)N[C@@H](CCCNC(=N)N)C(=O)O [P-NT.II] (H-LGRVDIHVWDGVYIRGR-OH)
- IC50 [2]: 1550 nM

Molecule: CC[C@H](C)[C@H](NC(=O)[C@H](CCC(=O)O)NC(=O)[C@@H](N)C(C)C)C(=O)N[C@@H](Cc1c[nH]cn1)C(=O)N[C@H](C(=O)N[C@@H](Cc1c[nH]c2ccccc12)C(=O)N[C@@H](CCC(=O)O)C(=O)NCC(=O)N[C@H](C(=O)N[C@H](C(=O)N[C@@H](CCC(=O)O)C(=O)N[C@H](C(=O)N[C@@H](Cc1c[nH]cn1)C(=O)N[C@H](C(=O)N[C@@H](Cc1c[nH]c2ccccc12)C(=O)N[C@@H](CCC(=O)O)C(=O)NCC(=O)N[C@H](C(=O)O)C(C)C)C(C)C)[C@@H](C)CC)C(C)C)C(C)C)C(C)C [D60,65E-PIP [59-67] dimer] (H-VEIHVWEGVVEIHVWEGV-OH; N-terminus and C-terminus assumed)
- IC50 [1]: 4230 ± 670 nM
- inhibition at 5 µM [1, 4]: 68.5 ± 3.94%
- IC50 [2]: 3740 nM

Molecule: CC[C@H](C)[C@H](NC(=O)[C@H](CC(=O)O)NC(=O)[C@@H](N)C(C)C)C(=O)N[C@@H](Cc1c[nH]cn1)C(=O)N[C@H](C(=O)N[C@@H](Cc1c[nH]c2ccccc12)C(=O)N[C@@H](CO)C(=O)NCC(=O)N[C@H](C(=O)O)C(C)C)C(C)C [D655-PIP [59-67], VDIHVW (S) GV] (H-VDIHVWSGV-OH; N-terminus and C-terminus assumed)
- inhibition at 5 µM [1, 4]: 52.5 ± 1.08%

Molecule: RVDIHVWDGVYIRGR [PIP [58-72], P-NT.II analogue]
- Collagenase (% Inhibition) [3]: 23.3 ± 2.9%

Molecule: LGRVDIHVWDGVYIRG [PIP [56-71], P-NT.II analogue]
- Collagenase (% Inhibition) [3]: 62.8 ± 6.6%

Molecule: CC[C@H](C)[C@H](NC(=O)[C@H](CC(=O)O)NC(=O)[C@@H](N)C(C)C)C(=O)N[C@@H](Cc1c[nH]cn1)C(=O)N[C@H](C(=O)N[C@@H](Cc1c[nH]c2ccccc12)C(=O)N[C@@H](CCC(=O)O)C(=O)NCC(=O)N[C@H](C(=O)O)C(C)C)C(C)C [D65E-PIP [59-67], VDIHVW (E) GV] (H-VDIHVWEGV-OH; N-terminus and C-terminus assumed)
- inhibition at 5 µM [1, 4]: 57.6 ± 3.22%

Molecule: CC[C@H](C)[C@H](NC(=O)[C@H](CC(=O)O)NC(=O)[C@@H](N)C(C)C)C(=O)N[C@@H](Cc1cnc[nH]1)C(=O)N[C@H](C(=O)N[C@@H](Cc1c[nH]c2ccccc12)C(=O)N[C@@H](CC(=O)O)C(=O)NCC(=O)N[C@H](C(=O)N[C@H](C(=O)N[C@@H](CC(=O)O)C(=O)N[C@H](C(=O)N[C@@H](Cc1cnc[nH]1)C(=O)N[C@H](C(=O)N[C@@H](Cc1c[nH]c2ccccc12)C(=O)N[C@@H](CC(=O)O)C(=O)NCC(=O)N[C@H](C(=O)O)C(C)C)C(C)C)[C@@H](C)CC)C(C)C)C(C)C)C(C)C [PIP [59-67] dimer] (H-VDIHVWDGVVDIHVWDGV-OH)
- IC50 [2]: 902 nM

Molecule: LGRVDIHVWDGVY [PIP [56-68], P-NT.II analogue]
- Collagenase (% Inhibition) [3]: 61.6 ± 7.6%

Molecule: VDIHVWDGVYIRGR [PIP [59-72], P-NT.II analogue]
- Collagenase (% Inhibition) [3]: 14.5 ± 2.4%

Molecule: DIHVWDG [PIP [60-66], P-NT.II analogue]
- Collagenase (% Inhibition) [3]: 4.7 ± 2.6%

Molecule: CC[C@H](C)[C@H](NC(=O)[C@H](CC(=O)O)NC(=O)[C@@H](NC(=O)[C@@H](N)CCCNC(=N)N)C(C)C)C(=O)N[C@@H](Cc1c[nH]cn1)C(=O)N[C@H](C(=O)N[C@@H](Cc1c[nH]c2ccccc12)C(=O)N[C@@H](CC(=O)O)C(=O)NCC(=O)N[C@H](C(=O)O)C(C)C)C(C)C [PIP [58-67]] (H-RVDIHVWDGV-OH)
- Collagenase (% Inhibition) [3]: 29.4 ± 6.0%

Molecule: GRVDIHVWDGV [PIP [57-67], P-NT.II analogue]
- Collagenase (% Inhibition) [3]: 65.1 ± 3.3%

Molecule: LGRVDIHVWDGVYIR [PIP [56-70], P-NT.II analogue]
- Collagenase (% Inhibition) [3]: 60.6 ± 4.5%

Molecule: VDIHVW (βD) GV [β-Asp65-PIP [59-67]]
- % Inhibition (mean ± SD) [1, 4]: 49.71 ± 3.01%

Molecule: LGRVDIHVWDGVYI [PIP [56-69], P-NT.II analogue]
- Collagenase (% Inhibition) [3]: 59.8 ± 6.2%
